Assay results: patent US12473250B2, “Molecular design of new antibiotics and antibiotic adjuvants against MCR strains” (priority 2019, dated 2025)
≈ marks a conversion by molar mass, not a printed value.

Columns and labels:
Type in all cases: cell-based
[1] = test system: colistin resistant MCR (+) E. Coli strains; assay: Synergy study: colistin MIC in the presence of compound; conditions: for Colistin MIC in the presence of the compound: compound at 10 μg (Table 2a: 10 ug/ml)
Method: (§1) The MICs of the individual drugs and LC compound in combinations were determined using the broth microdilution technique as recommended by the CLSI whereby the two anti-microbial agents were added in an equal amount. (e.g.: 50 μL of Colistin: 50 μL of LC compounds). Diluted media containing compounds and antibiotics will be serially diluted 2-fold, and LC compounds and antibiotics alone or in combination will be assayed at fixed synergy concentration. In all cases, the lowest concentration at which no visible growth occurred was be recorded to be the MIC value of individual and combined antibacterial agents. The results were obtained after 24 hours of incubation.

[2] = test system: colistin resistant MCR (+) E. Coli strains; assay: MIC, broth microdilution, compound alone; conditions: for MIC: compound alone
Method: (§2) MIC experiments of the antimicrobial agents were determined by a modified broth microdilution method in accordance with the Clinical and Laboratory Standards Institute (CLSI) guidelines using 96 well culture plates. In brief, serial dilutions of all plates were prepared at different concentrations (μg). The inoculum suspension was prepared by adding isolated colonies from a 18-20 hours on TSA plate into phosphate buffer (0.31 mM, pH 7.2) or in water for injection (BBraun) and adjusting the suspension to a turbidity equivalent to 0.5 McFarland Standard. Each well contained a final bacterial concentration of approximately 5×10^5 colony forming units (CFU)/mL. The plate was covered and incubated at 35° C. for 24 hours. […] For the microdilution plates, turbidity in wells can be measured at OD600 using TECAN infinite M200Pro. MIC was determined as […] concentration that gives a 99 percent inhibition.

[3] = test system: colistin resistant MCR (−) E. Coli strains; assay: Synergy study: colistin MIC in the presence of compound
Method: as §1

[4] = test system: colistin resistant MCR (−) E. Coli strains; assay: MIC, broth microdilution, compound alone
Method: as §2

## CC1(C)C=Cc2c(ccc3c2OCC(c2ccc(OCCCCN(Cc4ccccn4)Cc4ccccn4)cc2OCCCCN(Cc2ccccn2)Cc2ccccn2)C3)O1 (stereo not drawn) [GLA-DPA]
[1]; against mcr-1 bacteria
  concentration at which the compound shows synergy with colistin: 5 µg/mL
[1]; against mcr-1 bacteria, in words
  synergy with colistin: restore the sensitivity of E. coli with mcr-1 to colistin
[2]; colistin resistant bacteria, in words
  antimicrobial activity when used alone: limited antimicrobial activity

## CCN(CC)CCCCOc1ccc(/C=C/C(=O)c2ccc(OCCCCN(CC)CC)cc2O)cc1 [LC107]
[1]; strain 6075066346, MCR(+)
  Colistin MIC in the presence of the compound: 3.125 µg/mL
[1]; strain 6083655967, MCR(+)
  Colistin MIC in the presence of the compound: 3.125 µg/mL
[1]; strain 6103645107, MCR(+)
  Colistin MIC in the presence of the compound: 3.125 µg/mL
[1]; strain 6123520276, MCR(+)
  Colistin MIC in the presence of the compound: 3.125 µg/mL
[1]; strain 7013177695, MCR(+)
  Colistin MIC in the presence of the compound: 3.125 µg/mL
[1]; strain 7023436560, MCR(+)
  Colistin MIC in the presence of the compound: 6.25 µg/mL
[1]; strain 7023444207, MCR(+)
  Colistin MIC in the presence of the compound: 6.25 µg/mL
[2]; strain 6075066346, MCR (+)
  MIC: >100 µg/mL
[2]; strain 6083655967, MCR (+)
  MIC: >100 µg/mL
[2]; strain 6103645107, MCR (+)
  MIC: >100 µg/mL
[2]; strain 6123520276, MCR (+)
  MIC: >100 µg/mL
[2]; strain 7013177695, MCR (+)
  MIC: >100 µg/mL
[2]; strain 7023436560, MCR (+)
  MIC: >100 µg/mL
[2]; strain 7028444207 (Table 1b), MCR (+)
  MIC: >100 µg/mL

## CC(C)=CCc1c(OCCN(C)CCCN(C)C)ccc(C(=O)/C=C/c2ccc(OCCN(C)CCCN(C)C)cc2)c1O [LC140]
[3]; strain 6083672926, MCR(−), compound at 2 μg
  Colistin MIC in the presence of the compound: 1.56 µg/mL
[3]; strain 7023446108, MCR(−), compound at 2 μg
  Colistin MIC in the presence of the compound: 1.56 µg/mL
[3]; strain 7033607097, MCR(−), compound at 2 μg
  Colistin MIC in the presence of the compound: 1.56 µg/mL
[4]; strain 6083672926, MCR (−)
  MIC: 12.5 µg/mL (≈ 20.5 µM)
[4]; strain 7023446108, MCR (−)
  MIC: 12.5 µg/mL (≈ 20.5 µM)
[4]; strain 7033607097, MCR (−)
  MIC: 6.25 µg/mL (≈ 10.3 µM)
[2]; strain 6075066346, MCR (+)
  MIC: 12.5 µg/mL (≈ 20.5 µM)
[2]; strain 6083655967, MCR (+)
  MIC: 12.5 µg/mL (≈ 20.5 µM)
[2]; strain 7103531927, MCR (+)
  MIC: 25 µg/mL (≈ 41.1 µM)

## CC(C)=CCc1c(OCCNCCN)ccc(C(=O)/C=C/c2ccc(OCCNCCN)cc2)c1O [LC143]
[3]; strain 6083672926, MCR(−), compound at 5 μg (Table 2a: 5 ug/ml)
  Colistin MIC in the presence of the compound: ≤0.0975 µg/mL
[3]; strain 7023446108, MCR(−), compound at 5 μg (Table 2a: 5 ug/ml)
  Colistin MIC in the presence of the compound: ≤0.0975 µg/mL
[3]; strain 7033607097, MCR(−), compound at 5 μg (Table 2a: 5 ug/ml)
  Colistin MIC in the presence of the compound: ≤0.0975 µg/mL
[4]; strain 6083672926, MCR (−)
  MIC: 12.5 µg/mL (≈ 25.2 µM)
[4]; strain 7023446108, MCR (−)
  MIC: 6.25 µg/mL (≈ 12.6 µM)
[4]; strain 7033607097, MCR (−)
  MIC: 6.25 µg/mL (≈ 12.6 µM)
[2]; strain 6075066346, MCR (+)
  MIC: 6.25 µg/mL (≈ 12.6 µM)
[2]; strain 6083655967, MCR (+)
  MIC: 6.25 µg/mL (≈ 12.6 µM)
[2]; strain 7103531927, MCR (+)
  MIC: 12.5 µg/mL (≈ 25.2 µM)

## Cc1cc(OCCCCN(Cc2ccccn2)Cc2ccccn2)cc(OCCCCN(Cc2ccccn2)Cc2ccccn2)c1 [Orc-DPA]
[1]; against mcr-1 bacteria
  concentration at which the compound shows synergy with colistin: 50 µg/mL
